The record followed here is ChEMBL document CHEMBL5338781, “Fragment-Based Approaches to Identify RNA Binders” (J Med Chem, 2023).

Assay [1] is described as follows: Binding affinity to HIV1 TAR RNA assessed as inhibition of Tat-mediated transactivation. In kind it is functional, Human immunodeficiency virus 1.
Assay [2] is described as follows: Binding affinity to Escherichia coli ThiM TPP riboswitch.
For assay [3], the target named is microRNA 21. In words: Binding affinity to pre-miR-21 (unknown origin). Format: nucleic-acid assay.
The target of assay [4] is microRNA 21. In words: Inhibition of pre-miR-21 biogenesis in human MDA-MB-231 cells. In kind it is cell-based.
Assay [5] concerns the target microRNA 21. Description: Inhibition of pre-miR-21 biogenesis in human Triple-negative breast cancer cell. In kind it is cell-based.
A short description of assay [6]: Binding affinity to influenza A virus RNA by one-dimensional NMR spectroscopy method.
The next assay concerns Influenza A virus. In words: Antiviral activity against Influenza A virus assessed as inhibition of virus-induced cytopathic effect. In kind it is functional, organism-based.
The next assay has as its system Influenza B virus. In words: Antiviral activity against Influenza B virus assessed as inhibition of virus-induced cytopathic effect. In kind it is functional, organism-based. For orientation: Damage to the host cells serves as the signal in cytopathic effect assays.
The nature of assay [7]: Binding affinity to HIV-1 RNA by SPR analysis. On the set-up: species or system Human immunodeficiency virus 1. On the technique in general: In SPR one partner is held on a chip, and binding of the other changes the refractive index at the surface.
Assay [8] addresses T1, Sulfhydryl oxidase 1 (Homo sapiens) (UniProt O00391).
T1 sequence (whole entry): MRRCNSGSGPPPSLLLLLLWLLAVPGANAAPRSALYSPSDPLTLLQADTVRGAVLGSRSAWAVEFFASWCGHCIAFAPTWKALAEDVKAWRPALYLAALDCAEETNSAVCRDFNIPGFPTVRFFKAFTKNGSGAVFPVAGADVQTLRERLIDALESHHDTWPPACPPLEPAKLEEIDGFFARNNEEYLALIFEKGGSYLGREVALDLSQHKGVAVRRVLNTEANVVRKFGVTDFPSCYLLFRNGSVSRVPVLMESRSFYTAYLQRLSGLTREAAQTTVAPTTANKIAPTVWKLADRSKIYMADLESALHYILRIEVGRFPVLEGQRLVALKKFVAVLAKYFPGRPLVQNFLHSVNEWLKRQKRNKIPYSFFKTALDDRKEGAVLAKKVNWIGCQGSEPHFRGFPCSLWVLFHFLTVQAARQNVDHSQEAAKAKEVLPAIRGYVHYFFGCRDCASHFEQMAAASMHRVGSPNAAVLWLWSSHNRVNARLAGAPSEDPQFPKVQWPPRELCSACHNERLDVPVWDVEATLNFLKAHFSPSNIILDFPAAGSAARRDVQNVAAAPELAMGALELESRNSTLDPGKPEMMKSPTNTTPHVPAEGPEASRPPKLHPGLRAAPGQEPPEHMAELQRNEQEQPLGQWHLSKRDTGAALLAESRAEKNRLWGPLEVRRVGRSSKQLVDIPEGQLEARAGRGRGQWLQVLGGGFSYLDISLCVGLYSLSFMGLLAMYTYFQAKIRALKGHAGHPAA
In words: Inhibition of QSOX1 in human MDA-MB-231 cells at 20 uM relative to control. In kind it is cell-based.

In a further assay the target is RNA. Description: Binding affinity to RNA (unknown origin) by fluorescence based analysis. Format: nucleic-acid assay.
Assay [9] can be described thus: Binding affinity to pri-miR-96 (unknown origin).
A short description of assay [10]: Inhibition of pri-miR-96 biogenesis in human MDA-MB-231 cells. Format: cell-based.
A further assay has as its system Staphylococcus aureus. Description: Antibacterial activity against Staphylococcus aureus assessed as bacterial growth inhibition. Format: functional.
For assay [11], the system named is Escherichia coli. Description: Antibacterial activity against Escherichia coli assessed as bacterial growth inhibition. Format: functional.
Another assay deals with Bacterial 70S ribosome. In words: Inhibition of Mycobacterium smegmatis ribosomes assessed as inhibition of translation activity. In kind it is subcellular, Mycolicibacterium smegmatis.
Assay [12] in a line: Binding affinity to pre-miR-372 (unknown origin).
Assay [13] is described as follows: Inhibition of pre-miR-372 biogenesis in human AGS cells. Format: cell-based.
Assay [14] deals with Escherichia coli. Description: Binding affinity to Escherichia coli ThiM TPP riboswitch assessed as inhibition of conformational switching.
The target of another assay is T2, Sulfhydryl oxidase 1 (Homo sapiens, UniProt O00391).
T2 sequence (O00391 whole entry): T1 sequence (whole entry)
In words: Binding affinity to QSOX1 in human MDA-MB-231 cells. Format: cell-based.

The nature of assay [15]: Binding affinity to bacteria RNA by HTS method.

SMILES strings stand for the structures. ≈ marks a conversion by molar mass, not a printed value.

In general, IC50 refers to the point on the concentration scale where inhibition reaches its midpoint. For the compound `Nc1ccc2nc(N)nc(N)c2c1` [QUINAZOLINE-2,4,6-TRIAMINE], the IC50 in assay [1] stood at 40 µM. What is called Kd is the constant that tells how readily two partners part at equilibrium. Read a low Kd as higher affinity. Compound `Nc1ccc2nccnc2c1` registered a Kd in assay [2] of 22 µM. Turning to `CN1CCN(c2ccc(-c3ccc4nc(-c5ccc(OCCCC(=O)N6CCN(c7nncc8sccc78)CC6)cc5)[nH]c4c3)cc2)CC1`, on microRNA 21 [3], the Kd is 0.352 µM. In addition, the IC50 on microRNA 21 [4] and against microRNA 21 [5] was roughly 1 µM throughout. As for `NC1=Nc2cccc3cccc(c23)N1`, in assay [1], the IC50 was 50 µM.

As a reminder, the EC50 is the concentration at which the effect is half-maximal. In assay [6], `COc1cc2nc(N3CCNCC3)nc(N)c2cc1OC` [AMINODIMETHOXYQUINAZOLINYLPIPERAZINE] displayed a Kd of 50 µM. Further, the EC50 in the assay on Influenza A virus and in the assay on Influenza B virus was 71 µM in each case. Compound `CCc1nc2ccccc2cc1C(=O)N[C@@H](CSSC[C@H](NC(=O)c1cc2ccccc2nc1CC)C(=O)N1CCC[C@H]1C(=O)N[C@@H](Cc1ccccc1)C(=O)NCCCCCC(N)=O)C(=O)N1CCC[C@H]1C(=O)N[C@@H](Cc1ccccc1)C(=O)NCCCCCC(N)=O` registered a Kd in [7] of 4.1 µM.

As to `COc1ccc2nc3cc(F)ccc3c(N)c2c1`, in assay [7], the Kd came out at 59 µM. Same read-out and setting: for `CCc1nc2cc3ccccc3cc2cc1C(=O)N(C)[C@@H](CCn1cc(C[C@@H](C(=O)N2CCC[C@H]2C(=O)N(C)[C@@H](Cc2ccccc2)C(=O)NCCCN)N(C)C(=O)c2cc3cc4ccccc4cc3nc2CC)nn1)C(=O)N1CCC[C@H]1C(=O)N(C)[C@@H](Cc1ccccc1)C(=O)NCCCN` the value was 0.016 µM. One may read the inhibition as the share of the control response that was lost under treatment. Read a high inhibition as strong suppression. As for `C#CCCC1(CCC(=O)N(C)[C@H]2CC[C@@H](c3ccc(Cl)c(Cl)c3)c3ccccc32)N=N1`, the inhibition in assay [8] is 15%. `Cc1nc(N)nc(N)n1` came in with a Kd at RNA of 110 µM. For the compound `CCCN(CC(=O)N(CCC)CC(=O)N(CC(N)=O)Cc1cn(CCCNC(=O)CCCOc2c(C(C)(C)C)cc(-c3nc4cc(N5CCN(C)CC5)ccc4[nH]3)cc2C(C)(C)C)nn1)C(=O)CCCOc1cccc(-c2nc3ccc(-c4nc5ccc(N6CCN(C)CC6)cc5[nH]4)cc3[nH]2)c1`, the Kd in assay [9] worked out at 0.085 µM. The IC50 in assay [10] was roughly 0.05 µM. Turning to `OCc1ccc2nsnc2c1`, in [2], the affinity, expressed as Kd, was 56 µM.

In turn, `CN1CCN(c2ccc(-c3ccc4nc(-c5ccc(OCCCC(=O)CCCN=[N+]=[N-])cc5)[nH]c4c3)cc2)CC1` came in with a Kd on microRNA 21 [3] of 18 µM. At RNA, `Nc1nc2[nH]nc(N)n2n1` displayed a Kd of 370 µM. For orientation: MIC means the lowest concentration found to suppress growth. Consider `CN(C)CCCOc1ccc(C(NC(=O)c2ccc(-c3cccc(NC(=O)c4ccc(-c5ccccc5)cc4)c3)o2)C(=O)N2CCNCC2)cc1` (centres undefined), for which the MIC was determined as 3 µM (≈ 2.06 µg/mL) in the assay with Staphylococcus aureus and 6 µM (≈ 4.11 µg/mL) in the assay on Escherichia coli [11]. `Cc1ncc(CN=[N+]=[N-])cn1`: in [2], binding was put at a Kd of 49 µM. For the compound `CCN1CCN(Cc2csc(-c3ccccc3)n2)CC1`, on Bacterial 70S ribosome, the IC50 was 2.8 µM. `O=c1[nH]cccc1-c1nc(-c2cccc(Cl)c2)no1`: the Kd in [12] was 0.3 µM. The compound further returned an IC50 in assay [13] of roughly 1 µM. Regarding `Cc1nc(CN2CCN(Cc3csc(-c4ccccc4)n3)CC2)cs1`, the IC50 on Bacterial 70S ribosome worked out at 9.1 µM. In the case of `CN1CCN(c2ccc3nc(-c4cc(C(C)(C)C)c(OCCCC(=O)NCCCN=[N+]=[N-])c(C(C)(C)C)c4)[nH]c3c2)CC1`, the Kd in assay [9] came to 1.5 µM.

`CNCc1cc2cccnc2s1` yielded a Kd in [2] of 60 µM. `c1cc(N2CCNCC2)ccn1`: in assay [2], binding was characterised by a dissociation constant (Kd) of 620 µM. In [2], `c1cc(N2CCNCC2)c(NCc2ccc3nccnc3c2)cn1` showed a Kd of 0.068 µM. The K with Escherichia coli [14] was found to be 68 µM.

With `CCOC(=O)C1=C(Nc2ccccc2)S/C(=C\c2ccc(OCCOCCOCCOCCNC(=O)CCC(=O)N(C)[C@H]3CC[C@@H](c4ccc(Cl)c(Cl)c4)c4ccccc43)c(O)c2)C1=O`, binding at Sulfhydryl oxidase 1 was characterised by a dissociation constant (Kd) of 16 µM. With `Nc1ccc2ccnc(N)c2c1`, the IC50 in assay [1] was 150 µM. Turning to `COc1ccc2nc3cc(F)ccc3c(Nc3ccc(C(=O)Nc4ccncc4)cc3)c2c1`, the Kd in assay [7] was determined as 1 µM. On RNA, `Nc1ccnc(N)n1` [DIAMINOPYRIMIDINE] returned a Kd of 80 µM. Turning to `NCC[C@@H](NC(=O)c1ccc(-c2cccc(NC(=O)c3ccc4nc(O)c(O)nc4c3)c2)o1)C(=O)N1CCNCC1`, the Kd in assay [15] came to 6.5 µM. On to `Nc1csc(Br)n1`, for which, on RNA, the Kd was 650 µM.

`CN1CCN(c2ccc3nc(-c4ccc5[nH]c(-c6cccc(OCCCC(=O)NCCN=[N+]=[N-])c6)nc5c4)[nH]c3c2)CC1` had a Kd in assay [9] of 1.3 µM. Besides, the IC50 in [10] was roughly 0.02 µM.
